Laboratory results from patent US11820766B2, “Monoacylglycerol lipase modulators” (Janssen Pharmaceutica NV, priority 2018, dated 2023).

The compounds below were run against T1, human MGL from HeLa cells (Homo sapiens, UniProt Q99685) (assay: In vitro MGL activity assay: [glycerol-1,3-3H]-oleyl glycerol cleavage by MGL from HeLa cells). Settings: 300 nM [Glycerol-1,3-3H]-oleyl glycerol, one hour.
T1 construct: combining endogenously expressed MGL from HeLa cells with test compounds; endogenous in cells; host or cells: HeLa cells / cell homogenates
T1 sequence (Q99685 1-303): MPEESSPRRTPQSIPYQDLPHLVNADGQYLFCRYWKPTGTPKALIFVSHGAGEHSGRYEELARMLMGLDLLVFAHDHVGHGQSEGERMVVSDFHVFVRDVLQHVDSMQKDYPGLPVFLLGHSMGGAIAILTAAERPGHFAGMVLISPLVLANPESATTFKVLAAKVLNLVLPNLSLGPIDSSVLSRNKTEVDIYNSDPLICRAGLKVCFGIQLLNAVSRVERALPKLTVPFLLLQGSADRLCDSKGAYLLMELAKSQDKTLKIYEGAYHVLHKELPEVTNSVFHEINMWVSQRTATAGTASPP
Type: biochemical
Text: MGL is the predominant hydrolase in HeLa cells/cell homogenates.

SMILES | IC50 [nM]
Cc1nn(C)cc1C(=O)N1CCc2c(nn(C)c2-c2cc(F)c(F)c(F)c2)[C@@H]1C [Example 343, (1,3-Dimethylpyrazol-4-yl)-[(7S)-2,7-dimethyl-3-(3,4,5-trifluorophenyl)-5,7-dihydro-4H-pyrazolo[3,4-c]pyridin-6-yl]methanone] | 308
Cc1nn(C)c(C)c1C(=O)N1CCc2c(nn(C)c2-c2cc(F)c(F)c(F)c2)[C@@H]1C [Example 344, [(7S)-2,7-Dimethyl-3-(3,4,5-trifluorophenyl)-5,7-dihydro-4H-pyrazolo[3,4-c]pyridin-6-yl]-(1,3,5-trimethylpyrazol-4-yl)methanone] | 58.1
Cc1c(C(=O)N2CCc3c(nn(C)c3-c3cc(F)c(F)c(F)c3)[C@@H]2C)cnn1C [Example 345, (1,5-Dimethylpyrazol-4-yl)-[(7S)-2,7-dimethyl-3-(3,4,5-trifluorophenyl)-5,7-dihydro-4H-pyrazolo[3,4-c]pyridin-6-yl]methanone] | 52.8
C[C@H]1c2nn(C)c(-c3cc(F)c(F)c(F)c3)c2CCN1C(=O)c1cn(C)nc1C1(C)CC1 [Example 347, [(7S)-2,7-Dimethyl-3-(3,4,5-trifluorophenyl)-5,7-dihydro-4H-pyrazolo[3,4-c]pyridin-6-yl]-[1-methyl-3-(1-methylcyclopropyl)pyrazol-4-yl]methanone] | 2490
C[C@H]1c2nn(C)c(-c3cc(F)c(F)c(F)c3)c2CCN1C(=O)c1cn(C)nc1C1(F)CC1 [Example 348, [(7S)-2,7-Dimethyl-3-(3,4,5-trifluorophenyl)-5,7-dihydro-4H-pyrazolo[3,4-c]pyridin-6-yl]-[3-(1-fluorocyclopropyl)-1-methyl-pyrazol-4-yl]methanone] | 848
C[C@@H]1c2nn(-c3ccccc3)c(-c3ccccc3)c2CCN1C(=O)c1cnn(C)c1C1CC1 [Example 349, (R)-(5-cyclopropyl-1-methyl-1H-pyrazol-4-yl) (7-methyl-2,3-diphenyl-2,4,5,7-tetrahydro-6H-pyrazolo[3,4-c]pyridin-6-yl) methanone] | 1080
C[C@H]1c2nn(C)c(-c3cc(F)c(F)c(F)c3)c2CCN1C(=O)c1cc2[nH]ccc2cc1F [Example 353, [(7S)-2,7-Dimethyl-3-(3,4,5-trifluorophenyl)-5,7-dihydro-4H-pyrazolo[3,4-c]pyridin-6-yl]-(5-fluoro-1H-indol-6-yl)methanone] | 48.5
Cc1ccc2c(C(=O)N3CCc4c(nn(C)c4-c4cc(F)c(F)c(F)c4)[C@@H]3C)c[nH]c2c1 [Example 360, [(7S)-2,7-Dimethyl-3-(3,4,5-trifluorophenyl)-5,7-dihydro-4H-pyrazolo[3,4-c]pyridin-6-yl]-(6-methyl-1H-indol-3-yl)methanone] | 46.8
C[C@H]1c2nn(C)c(-c3cc(F)c(F)c(F)c3)c2CCN1C(=O)c1n[nH]c2cc(F)ccc12 [Example 363, [(7S)-2,7-Dimethyl-3-(3,4,5-trifluorophenyl)-5,7-dihydro-4H-pyrazolo[3,4-c]pyridin-6-yl]-(6-fluoro-1H-indazol-3-yl)methanone] | 44.1
C[C@H]1c2nn(C)c(-c3cc(F)c(F)c(F)c3)c2CCN1C(=O)c1cccc2c1ncn2C [Example 366, [(7S)-2,7-Dimethyl-3-(3,4,5-trifluorophenyl)-5,7-dihydro-4H-pyrazolo[3,4-c]pyridin-6-yl]-(1-methylbenzimidazol-4-yl)methanone] | 51.9
C[C@H]1c2nn(C)c(-c3cc(F)c(F)c(F)c3)c2CCN1C(=O)c1cccc2[nH]nnc12 [Example 367, 1H-Benzotriazol-4-yl-[(7S)-2,7-dimethyl-3-(3,4,5-trifluorophenyl)-5,7-dihydro-4H-pyrazolo[3,4-c]pyridin-6-yl]methanone] | 658

The next compounds have a lower IC50 than those just listed; values first:

IC50 [nM] | SMILES
8.7 | C[C@H]1c2nn(C)c(-c3cc(F)c(F)c(F)c3)c2CCN1C(=O)c1cnn(C)c1C1CC1(F)F (stereo partly drawn) [Example 336, (5-(2,2-Difluorocyclopropyl)-1-methyl-1H-pyrazol-4-yl)((S)-2,7-dimethyl-3-(3,4,5-trifluorophenyl)-4,5-dihydro-2H-pyrazolo[3,4-c]pyridin-6-yl)methanone]
9.53 | CC1CC1c1c(C(=O)N2CCc3c(nn(C)c3-c3cc(F)c(F)c(F)c3)[C@@H]2C)cnn1C (stereo partly drawn) [Example 341, ((S)-2,7-Dimethyl-3-(3,4,5-trifluorophenyl)-2,4,5,7-tetrahydro-6H-pyrazolo[3,4-c]pyridin-6-yl)(1-methyl-cis-5-(2-methylcyclopropyl)-1H-pyrazol-4-yl)methanone]
22.4 | C[C@H]1c2nn(C)c(-c3cc(F)c(F)c(F)c3)c2CCN1C(=O)c1cnn(C2CC2)c1C(F)(F)F [Example 346, [1-Cyclopropyl-5-(trifluoromethyl)pyrazol-4-yl]-[(7S)-2,7-dimethyl-3-(3,4,5-trifluorophenyl)-5,7-dihydro-4H-pyrazolo[3,4-c]pyridin-6-yl]methanone]
27.6 | C[C@H]1c2nn(-c3ccccc3)c(-c3ccccc3)c2CCN1C(=O)c1cnn(C)c1C1CC1 [Example 350, (S)-(5-cyclopropyl-1-methyl-1H-pyrazol-4-yl) (7-methyl-2,3-diphenyl-2,4,5,7-tetrahydro-6H-pyrazolo[3,4-c]pyridin-6-yl)methanone]
8.9 | Cc1c(C(=O)N2CCc3c(nn(C)c3-c3cc(F)c(F)c(F)c3)[C@@H]2C)ccn1C [Example 351, (1,2-Dimethylpyrrol-3-yl)-[(7S)-2,7-dimethyl-3-(3,4,5-trifluorophenyl)-5,7-dihydro-4H-pyrazolo[3,4-c]pyridin-6-yl]methanone]
30.5 | Cc1onc(C(=O)N2CCc3c(nn(C)c3-c3cc(F)c(F)c(F)c3)[C@@H]2C)c1C [Example 352, (4,5-Dimethylisoxazol-3-yl)-[(7S)-2,7-dimethyl-3-(3,4,5-trifluorophenyl)-5,7-dihydro-4H-pyrazolo[3,4-c]pyridin-6-yl]methanone]
2.23 | C[C@H]1c2nn(C)c(-c3cc(F)c(F)c(F)c3)c2CCN1C(=O)c1ccc(F)c2[nH]ccc12 [Example 354, [(7S)-2,7-Dimethyl-3-(3,4,5-trifluorophenyl)-5,7-dihydro-4H-pyrazolo[3,4-c]pyridin-6-yl]-(7-fluoro-1H-indol-4-yl)methanone]
22.8 | C[C@H]1c2nn(C)c(-c3cc(F)c(F)c(F)c3)c2CCN1C(=O)c1c[nH]c2ccc(F)cc12 [Example 355, [(7S)-2,7-Dimethyl-3-(3,4,5-trifluorophenyl)-5,7-dihydro-4H-pyrazolo[3,4-c]pyridin-6-yl]-(5-fluoro-1H-indol-3-yl)methanone]
18.6 | C[C@H]1c2nn(C)c(-c3cc(F)c(F)c(F)c3)c2CCN1C(=O)c1cn(C)c2ccc(F)cc12 [Example 356, [(7S)-2,7-Dimethyl-3-(3,4,5-trifluorophenyl)-5,7-dihydro-4H-pyrazolo[3,4-c]pyridin-6-yl]-(5-fluoro-1-methyl-indol-3-yl)methanone]
8.88 | C[C@H]1c2nn(C)c(-c3cc(F)c(F)c(F)c3)c2CCN1C(=O)c1c[nH]c2cccc(F)c12 [Example 357, [(7S)-2,7-Dimethyl-3-(3,4,5-trifluorophenyl)-5,7-dihydro-4H-pyrazolo[3,4-c]pyridin-6-yl]-(4-fluoro-1H-indol-3-yl)methanone]
37.6 | C[C@H]1c2nn(C)c(-c3cc(F)c(F)c(F)c3)c2CCN1C(=O)c1c[nH]c2cc(F)ccc12 [Example 358, [(7S)-2,7-Dimethyl-3-(3,4,5-trifluorophenyl)-5,7-dihydro-4H-pyrazolo[3,4-c]pyridin-6-yl]-(6-fluoro-1H-indol-3-yl)methanone]
31 | C[C@H]1c2nn(C)c(-c3cc(F)c(F)c(F)c3)c2CCN1C(=O)c1c[nH]c2c(F)cccc12 [Example 359, [(7S)-2,7-Dimethyl-3-(3,4,5-trifluorophenyl)-5,7-dihydro-4H-pyrazolo[3,4-c]pyridin-6-yl]-(7-fluoro-1H-indol-3-yl)methanone]
14.6 | C[C@H]1c2nn(C)c(-c3cc(F)c(F)c(F)c3)c2CCN1C(=O)c1n[nH]c2ccccc12 [Example 361, [(7S)-2,7-Dimethyl-3-(3,4,5-trifluorophenyl)-5,7-dihydro-4H-pyrazolo[3,4-c]pyridin-6-yl]-(1H-indazol-3-yl)methanone]
2.74 | C[C@H]1c2nn(C)c(-c3cc(F)c(F)c(F)c3)c2CCN1C(=O)c1n[nH]c2cccc(F)c12 [Example 362, [(7S)-2,7-Dimethyl-3-(3,4,5-trifluorophenyl)-5,7-dihydro-4H-pyrazolo[3,4-c]pyridin-6-yl]-(4-fluoro-1H-indazol-3-yl)methanone]
20.3 | C[C@H]1c2nn(C)c(-c3cc(F)c(F)c(F)c3)c2CCN1C(=O)c1n[nH]c2ccc(F)cc12 [Example 364, [(7S)-2,7-Dimethyl-3-(3,4,5-trifluorophenyl)-5,7-dihydro-4H-pyrazolo[3,4-c]pyridin-6-yl]-(5-fluoro-1H-indazol-3-yl)methanone]
9.36 | C[C@H]1c2nn(C)c(-c3cc(F)c(F)c(F)c3)c2CCN1C(=O)c1cnc2[nH]ccc2c1 [Example 368, [(7S)-2,7-Dimethyl-3-(3,4,5-trifluorophenyl)-5,7-dihydro-4H-pyrazolo[3,4-c]pyridin-6-yl]-(1H-pyrrolo[2,3-b]pyridin-5-yl)methanone]
1.88 | C[C@H]1c2nn(C)c(-c3cc(F)c(F)c(F)c3)c2CCN1C(=O)c1c(F)cnc2[nH]ccc12 [Example 369, [(7S)-2,7-Dimethyl-3-(3,4,5-trifluorophenyl)-5,7-dihydro-4H-pyrazolo[3,4-c]pyridin-6-yl]-(5-fluoro-1H-pyrrolo[2,3-b]pyridin-4-yl)methanone]
